We go through one sequence from patent US20180009859A1, “PHARMACOLOGICAL MODULATORS OF GABAA RECEPTORS AND THEIR USE” (priority 2015, published 2018).

Where “and” joins values, the source holds several entries; their conditions need not be identical. Equal values may be shown once. Entries after “also recorded” stand apart in the source; their conditions may differ. Read-outs that look alike come from different tables or passages of the source. Bridge positions count the residues as written; N and C are the ends.

The LD50 is the dose at which mortality reaches 50%. Higher therefore signals a less toxic substance.

Data set [1] addresses T1, α1β2γ2 GABAA receptor (Rattus norvegicus, UniProt P62813+P63138). It counts as cell-based.
The subject of data set [2] is hippocampal neurons. Format: cell-based, mouse.
Data set [3] deals with mice. To be noted: injection into mouse brain.
The target of data set [4] is T1, α1β2γ2 GABAA receptor. It counts as cell-based. The settings on record: 5 μM muscimol + 100 nM sMmTX1, n=3; control 48±5s.
Data set [5] deals with hippocampal neurons. Put plainly: Calcium imaging of hippocampal neurons (Ca^2+ oscillations). It counts as cell-based, rat.
Data set [6] deals with α1EKβ2γ2 receptor mutant. It counts as cell-based, rat.
The target of data set [7] is α1β2-containing receptor (Rattus norvegicus, UniProt P62813+P63138). It counts as cell-based. The settings on record: 100 nM sMmTX1, −70 mV.
α1β2-containing receptor, sequence (P63138 25-474): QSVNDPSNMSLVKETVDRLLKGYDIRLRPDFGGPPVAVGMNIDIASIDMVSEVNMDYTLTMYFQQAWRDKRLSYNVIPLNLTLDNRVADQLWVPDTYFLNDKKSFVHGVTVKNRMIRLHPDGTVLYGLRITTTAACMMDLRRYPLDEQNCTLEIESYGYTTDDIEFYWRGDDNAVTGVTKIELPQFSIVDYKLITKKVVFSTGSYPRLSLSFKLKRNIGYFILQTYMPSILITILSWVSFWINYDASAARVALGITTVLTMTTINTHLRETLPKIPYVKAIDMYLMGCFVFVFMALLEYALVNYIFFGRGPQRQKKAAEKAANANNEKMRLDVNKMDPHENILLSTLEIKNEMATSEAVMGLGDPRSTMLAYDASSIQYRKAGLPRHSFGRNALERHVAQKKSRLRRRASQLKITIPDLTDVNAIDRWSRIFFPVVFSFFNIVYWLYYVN
α1β2-containing receptor, sequence (P62813 28-455): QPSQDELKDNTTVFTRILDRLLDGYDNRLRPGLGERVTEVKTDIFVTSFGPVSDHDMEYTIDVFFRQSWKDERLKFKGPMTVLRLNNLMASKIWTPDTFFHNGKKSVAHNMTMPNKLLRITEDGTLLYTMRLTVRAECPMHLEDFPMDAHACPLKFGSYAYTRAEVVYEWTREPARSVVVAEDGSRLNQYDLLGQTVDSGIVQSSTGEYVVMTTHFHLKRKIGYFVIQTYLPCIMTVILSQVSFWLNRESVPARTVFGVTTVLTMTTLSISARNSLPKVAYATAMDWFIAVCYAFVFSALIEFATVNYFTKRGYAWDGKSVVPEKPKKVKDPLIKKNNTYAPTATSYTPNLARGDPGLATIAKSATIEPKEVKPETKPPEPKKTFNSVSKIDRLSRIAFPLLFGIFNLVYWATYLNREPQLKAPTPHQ

T1 sequence (P63138 25-474): as the sequence (P63138 25-474) above
T1 sequence (P62813 28-455): as the sequence (P62813 28-455) above
T1 sequence (P18508 39-466, further chain): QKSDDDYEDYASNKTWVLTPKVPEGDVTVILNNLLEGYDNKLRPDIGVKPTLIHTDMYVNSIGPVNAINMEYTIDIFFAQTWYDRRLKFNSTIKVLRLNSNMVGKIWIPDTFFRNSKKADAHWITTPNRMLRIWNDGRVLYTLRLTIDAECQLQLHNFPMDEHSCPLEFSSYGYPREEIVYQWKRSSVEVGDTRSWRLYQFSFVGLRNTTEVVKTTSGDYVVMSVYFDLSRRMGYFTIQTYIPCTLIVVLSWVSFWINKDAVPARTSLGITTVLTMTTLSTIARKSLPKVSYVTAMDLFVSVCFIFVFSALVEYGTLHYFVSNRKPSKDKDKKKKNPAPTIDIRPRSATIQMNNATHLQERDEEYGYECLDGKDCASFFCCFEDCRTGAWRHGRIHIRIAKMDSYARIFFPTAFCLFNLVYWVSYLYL

Turning to “LTCKTCPFTTCPNSESCPGGQSICYQRKWEEHRGERIERRCVANCPAFGSHDTSLLCCTRDNCN (disulfide 3-24, 6-11, 17-41, 45-57, 58-63) [sMmTX1]”, the “alteration of current elicited by 50 μM muscimol” value in data set [1] is recorded as “not significantly altered”. Moreover, the “factor of current increase” value in data set [1] (0.3 μM muscimol + 100 nM sMmTX1, n=5) came to 2.7±0.18; in data set [1] (3 μM muscimol + 10 nM toxin), 1.28±0.12; in data set [1] (3 μM muscimol + 100 nM toxin), 1.33±0.13; in data set [1] (3 μM muscimol + 300 nM toxin) it was 1.60±0.11. The “effect on currents and desensitization” value in data set [1] (3 μM muscimol + 300 nM sMmTX1, −70 mV) is “currents are potentiated and receptor desensitization tends to accelerate”. Moreover, in data set [2] (100 nM sMmTX1, current clamp, n=5), the “frequency of action potentials” value is “substantial increase; also recorded: significantly increased”. For the same sequence, in data set [2] (100 nM sMmTX1, n=5), the “action potential amplitude and time-to-peak” value is “do not reveal a significant change”. The “amplitude of mini inhibitory postsynaptic currents (mIPSCs)” value in data set [2] (300 nM muscimol and 100 nM sMmTX1, with TTX, DNQX, APV, n=3) was “reduces the amplitude”. The “currents elicited by 30 ms puffs of 300 nM muscimol” value in data set [2] (continuous application of 100 nM sMmTX1) was “induces a decrease”. Moreover, in data set [2] (sMmTX1, voltage clamp, n=5), the “duration of burst-like postsynaptic currents” value is given as “considerable increase”. In data set [3], this sequence showed an LD50 of 0.013 mg/kg. The behavioral signs entry in data set [3] is on record as “identical mouse behavioral phenotype”. Moreover, in data set [4], the “time constant of receptor desensitization” value is 25 ± 3 s and 25 ± 2 s. In addition, the “initial effect on Ca^2+ oscillations” value in data set [5] is reported as “short but substantial inhibition”. Also, in data set [5] (100 nM sMmTX1 alone, n=9), the “frequency of Ca^2+ spikes compared to cells perfused with extracellular saline solution” value came to 105.8±4.0%. Moreover, in data set [6] (300 nM muscimol), the “effect on macroscopic conductance” value was “still reduces the macroscopic conductance”. Moreover, in data set [6] (5 μM muscimol + 100 nM sMmTX1, n=4), the “effect on mutant receptor desensitization” value is on record as “does not increase mutant receptor desensitization”. Moreover, the “sensitivity of the receptor to toxin” value in data set [7] is listed as “sensitive”.
